The numbers were not newly measured in patent publication US10695439B2, “Pyrrolobenzodiazepine conjugates” (Medimmune Limited, priority 2016, dated 2020), which cites them from elsewhere.

For data set [1] the following is noted: relative to SG2057, Hartley et al 2012.
A further data set concerns human tumour cell lines. To be noted: quoted from 2014 REF impact study.
The subject of data set [2] is human tumour xenograft models. To be noted: quoted from 2014 REF impact study.

The structures appear in SMILES notation.

In the case of `C=C1C[C@H]2C=Nc3cc(OCCCOc4cc5c(cc4OC)C(=O)N4CC(=C)C[C@H]4C=N5)c(OC)cc3C(=O)N2C1` [SG2000], in data set [1], the “cytotoxicity, times less cytotoxic than SG2057” value is “at least 10 times”.

In the case of `COc1ccc(C2=CN3C(=O)c4cc(OC)c(OCCCOc5cc6c(cc5OC)C(=O)N5C=C(c7ccc(OC)cc7)C[C@H]5C=N6)cc4N=C[C@@H]3C2)cc1` [SG2202], the “activity against a range of human tumour cell lines” value with human tumour cell lines is reported as “picomolar/sub-picomolar activity”. Also, the “activity in human tumour xenograft models” value in data set [2] is “curative activity”.
